Data: ChEMBL document CHEMBL5360661, “Structure-Activity Relationship Study of 1H-Pyrrole-3-carbonitrile Derivatives as STING Receptor Agonists” (ACS Med Chem Lett, 2023)
Activity calls are given as the source filed them. The calls are words filed in the database; no cut-off is given here.

Key:
[1] = target: T1, Stimulator of interferon genes protein (Homo sapiens, UniProt Q86WV6); assay: Activation of cGAS-STING pathway in wildtype human THP1-Blue ISG cells assessed as induction of IRF3 phosphorylation at Ser396 residue at 15 uM incubated upto 6 hrs by Western blot analysis; type: cell-based; conditions: filed as activator
Target sequence in this assay (Q86WV6 whole entry, the tested form may be a part): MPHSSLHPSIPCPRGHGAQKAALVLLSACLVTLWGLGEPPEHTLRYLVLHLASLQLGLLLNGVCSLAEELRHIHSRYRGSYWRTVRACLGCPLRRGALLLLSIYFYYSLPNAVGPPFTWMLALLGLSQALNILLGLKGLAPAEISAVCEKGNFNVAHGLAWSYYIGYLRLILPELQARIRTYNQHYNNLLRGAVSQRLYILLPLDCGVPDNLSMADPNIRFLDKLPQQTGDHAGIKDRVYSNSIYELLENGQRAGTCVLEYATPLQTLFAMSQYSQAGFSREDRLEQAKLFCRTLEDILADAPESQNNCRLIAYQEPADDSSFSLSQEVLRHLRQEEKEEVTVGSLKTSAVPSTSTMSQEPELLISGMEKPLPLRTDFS

[2] = target: T2, Stimulator of interferon genes protein (Mus musculus) (UniProt Q3TBT3); assay: (§1) Binding affinity to recombinant 6-His tagged mouse STING C-terminal domain (144 to 378 residues) expressed in Escherichia coli BL21 (DE3) cells assessed as thermal stabilization by measuring change in melting temperature at 50 uM incubated at 25 to 95 degreeC for 45 mins by SYPRO orange dye based fluorescence analysis
T2 sequence (whole entry): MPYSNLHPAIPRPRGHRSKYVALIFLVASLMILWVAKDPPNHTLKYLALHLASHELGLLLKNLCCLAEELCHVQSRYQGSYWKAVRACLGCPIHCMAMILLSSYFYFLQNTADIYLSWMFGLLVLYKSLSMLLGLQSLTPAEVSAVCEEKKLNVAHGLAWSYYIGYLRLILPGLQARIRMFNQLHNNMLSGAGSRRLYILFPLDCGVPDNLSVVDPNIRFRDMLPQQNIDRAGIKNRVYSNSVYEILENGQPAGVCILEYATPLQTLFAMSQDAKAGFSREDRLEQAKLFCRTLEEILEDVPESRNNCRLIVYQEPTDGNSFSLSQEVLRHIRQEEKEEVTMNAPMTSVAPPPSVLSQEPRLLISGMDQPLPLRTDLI

[3] = Competitive inhibition of 5-FAM labelled diABZI binding to recombinant human STING R232H variant C-terminal domain (139 to 378 residues) expressed in Escherichia coli BL21 (DE3) cells incubated for 10 mins by fluorescence polarization assay
[4] = target: T1, Stimulator of interferon genes protein; assay: Activation of cGAS-STING pathway in human THP1-Dual KO-cGAS cells assessed as induction of STAT3 phosphorylation at Tyr705 residue at 15 uM incubated for 1 hrs by Western blot analysis; type: cell-based; conditions: filed as activator
Target sequence in this assay (Q86WV6 whole entry, the tested form may be a part): as the sequence (Q86WV6 whole entry, the tested form may be a part) above

[5] = target: T1, Stimulator of interferon genes protein; assay: Activation of cGAS-STING pathway in human THP1-Dual KO-STING cells assessed as induction of STING phosphorylation at Ser366 residue at 15 uM incubated for 1 hrs by Western blot analysis; type: cell-based
Target sequence in this assay (Q86WV6 whole entry, the tested form may be a part): as the sequence (Q86WV6 whole entry, the tested form may be a part) above

[6] = target: T1, Stimulator of interferon genes protein; assay: Activation of cGAS-STING pathway in human THP-1 cells assessed as stimulation of IL6 gene expression at 15 uM by RT-qPCR analysis; type: cell-based; conditions: filed as activator, time <= 8.0 hrs
Target sequence in this assay (Q86WV6 whole entry, the tested form may be a part): as the sequence (Q86WV6 whole entry, the tested form may be a part) above

[7] = target: T1, Stimulator of interferon genes protein; assay: Activation of cGAS-STING pathway in human THP1-Dual KO-cGAS cells assessed as induction of IRF3 phosphorylation at Ser396 residue at 15 uM incubated for 1 hrs by Western blot analysis; type: cell-based; conditions: filed as activator
Target sequence in this assay (Q86WV6 whole entry, the tested form may be a part): as the sequence (Q86WV6 whole entry, the tested form may be a part) above

[8] = Competitive inhibition of 5-FAM labelled diABZI binding to recombinant human STING G230A and R293Q variant C-terminal domain (139 to 378 residues) expressed in Escherichia coli BL21 (DE3) cells incubated for 10 mins by fluorescence polarization assay
[9] = Competitive inhibition of 5-FAM labelled diABZI binding to recombinant human STING R293Q variant C-terminal domain (139 to 378 residues) expressed in Escherichia coli BL21 (DE3) cells incubated for 10 mins by fluorescence polarization assay
[10] = target: T1, Stimulator of interferon genes protein; assay: Activation of cGAS-STING pathway in human THP-1 cells assessed as stimulation of IFNB1 gene expression at 15 uM by RT-qPCR analysis; type: cell-based; conditions: filed as activator, time <= 8.0 hrs
Target sequence in this assay (Q86WV6 whole entry, the tested form may be a part): as the sequence (Q86WV6 whole entry, the tested form may be a part) above

[11] = target: T1, Stimulator of interferon genes protein; assay: Activation of cGAS-STING pathway in human THP1-Dual KO-STING cells assessed as induction of p65 phosphorylation at Ser536 residue at 15 uM incubated for 1 hrs by Western blot analysis; type: cell-based
[12] = target: T1, Stimulator of interferon genes protein; assay: Activation of cGAS-STING pathway in wildtype human THP1-Blue ISG cells assessed as induction of TBK1 phosphorylation at Ser172 residue at 15 uM incubated upto 6 hrs by Western blot analysis; type: cell-based; conditions: filed as activator
[13] = target: T1, Stimulator of interferon genes protein; assay: Activation of cGAS-STING pathway in human THP1-Dual KO-STING cells assessed as induction of IRF3 phosphorylation at Ser396 residue at 15 uM incubated for 1 hrs by Western blot analysis; type: cell-based
Homo sapiens [14] = species: Homo sapiens; assay: as §1, with “human” for “6-His tagged mouse”, “STING G230A and R293Q variant” for “STING”, “(139” for “(144”
[15] = target: T1, Stimulator of interferon genes protein; assay: Activation of cGAS-STING pathway in wildtype human THP1-Blue ISG cells assessed as induction of STAT3 phosphorylation at Tyr705 residue at 15 uM incubated upto 6 hrs by Western blot analysis; type: cell-based; conditions: filed as activator
[16] = target: T1, Stimulator of interferon genes protein; assay: Competitive inhibition of 5-FAM labelled diABZI binding to recombinant wildtype human STING R232 variant C-terminal domain (139 to 378 residues) expressed in Escherichia coli BL21 (DE3) cells incubated for 10 mins by fluorescence polarization assay
Target sequence in this assay (Q86WV6 whole entry, looked up, stated change not applied, the tested form may be a part): as the sequence (Q86WV6 whole entry, the tested form may be a part) above

[17] = target: T3, Stimulator of interferon genes protein (Mus musculus, UniProt Q3TBT3); assay: Competitive inhibition of 5-FAM labelled diABZI binding to recombinant 6-his tagged mouse STING C-terminal domain (144 to 378 residues) expressed in Escherichia coli BL21 (DE3) cells incubated for 10 mins by fluorescence polarization assay
T3 sequence (Q3TBT3 whole entry): T2 sequence (whole entry)

[18] = target: T1, Stimulator of interferon genes protein; assay: Activation of cGAS-STING pathway in wildtype human THP1-Blue ISG cells assessed as induction of STING phosphorylation at Ser366 residue at 15 uM incubated upto 6 hrs by Western blot analysis; type: cell-based; conditions: filed as activator
[19] = target: T1, Stimulator of interferon genes protein; assay: Activation of cGAS-STING pathway in human THP1-Dual KO-STING cells assessed as induction of TBK1 phosphorylation at Ser172 residue at 15 uM incubated for 1 hrs by Western blot analysis; type: cell-based
[20] = test system: Stimulator of interferon genes protein (Homo sapiens), Q86WV6 [UNDEFINED MUTATION]; assay: as §1, with “wildtype human” for “6-His tagged mouse”, “STING R232 variant” for “STING”, “(139” for “(144”
Sequence of Stimulator of interferon genes protein (Homo sapiens), Q86WV6 [UNDEFINED MUTATION] (Q86WV6 whole entry, looked up, stated change not applied): as the sequence (Q86WV6 whole entry, the tested form may be a part) above

Homo sapiens [21] = species: Homo sapiens; assay: as §1, with “human” for “6-His tagged mouse”, “STING R293Q variant” for “STING”, “(139” for “(144”
[22] = target: T1, Stimulator of interferon genes protein; assay: Agonist activity at STING in PMA-differentiated wildtype human THP1-Blue ISG cells harboring IRF-inducible SEAP reporter construct incubated for 24 hrs by QUANTI-Blue assay; type: cell-based
[23] = target: T1, Stimulator of interferon genes protein; assay: Activation of cGAS-STING pathway in wildtype human THP1-Blue ISG cells assessed as induction of p65 phosphorylation at Ser536 residue at 15 uM incubated upto 6 hrs by Western blot analysis; type: cell-based; conditions: filed as activator
[24] = target: T1, Stimulator of interferon genes protein; assay: Activation of cGAS-STING pathway in human THP1-Dual KO-STING cells assessed as induction of STAT3 phosphorylation at Tyr705 residue at 15 uM incubated for 1 hrs by Western blot analysis; type: cell-based
[25] = target: T1, Stimulator of interferon genes protein; assay: Activation of cGAS-STING pathway in human THP1-Dual KO-cGAS cells assessed as induction of p65 phosphorylation at Ser536 residue at 15 uM incubated for 1 hrs by Western blot analysis; type: cell-based; conditions: filed as activator
[26] = target: T1, Stimulator of interferon genes protein; assay: Activation of cGAS-STING pathway in human THP1-Dual KO-cGAS cells assessed as induction of STING phosphorylation at Ser366 residue at 15 uM incubated for 1 hrs by Western blot analysis; type: cell-based; conditions: filed as activator
[27] = target: T1, Stimulator of interferon genes protein; assay: Activation of cGAS-STING pathway in human THP-1 cells assessed as stimulation of CXCL10 gene expression at 15 uM by RT-qPCR analysis; type: cell-based; conditions: filed as activator, time <= 8.0 hrs
[28] = target: T1, Stimulator of interferon genes protein; assay: Activation of cGAS-STING pathway in human THP1-Dual KO-cGAS cells assessed as induction of TBK1 phosphorylation at Ser172 residue at 15 uM incubated for 1 hrs by Western blot analysis; type: cell-based; conditions: filed as activator
Homo sapiens [29] = species: Homo sapiens; assay: as §1, with “human” for “6-His tagged mouse”, “STING R232H variant” for “STING”, “(139” for “(144”

C#Cc1cc(NC(=O)c2ccc(-n3ccc(C#N)c3)nn2)c(C(=O)O)cc1F
Activity [1]: Active
ΔTm [2]: 7.5 °C
IC50 [3]: 3.55 µM
Activity [4]: Active
Activity [5]: inactive
Activity [6]: Active
Activity [7]: Active
IC50 [8]: 0.91 µM
IC50 [9]: 3.74 µM
Activity [10]: Active
Activity [11]: inactive
Activity [12]: Active
Activity [13]: inactive
ΔTm (Homo sapiens [14]): 13 °C
Activity [15]: Active
IC50 [16]: 3.31 µM
IC50 [17]: 4.72 µM
Activity [18]: Active
Activity [19]: inactive
ΔTm [20]: 6 °C
ΔTm (Homo sapiens [21]): 7.5 °C
EC50 [22]: 1.19 µM
Activity [23]: Active
Activity [24]: inactive
Activity [25]: Active
Activity [26]: Active
Activity [27]: Active
Activity [28]: Active
ΔTm (Homo sapiens [29]): 8 °C

N#Cc1ccn(-c2ccc(C(=O)Nc3cc(Br)c(Cl)cc3C(=O)O)nn2)c1
ΔTm [2]: 7 °C
IC50 [3]: 3.58 µM
IC50 [8]: 0.7 µM
IC50 [9]: 2.03 µM
ΔTm (Homo sapiens [14]): 13.5 °C
IC50 [16]: 1.98 µM
IC50 [17]: 4.36 µM
ΔTm [20]: 6.5 °C
ΔTm (Homo sapiens [21]): 7.5 °C
EC50 [22]: 2.53 µM
ΔTm (Homo sapiens [29]): 8.5 °C

N#Cc1ccn(-c2ccc(C(=O)Nc3cc(F)ccc3C(=O)O)nn2)c1
EC50 [22]: 48.1 µM
ΔTm (Homo sapiens [29]): 0 °C

O=C(Nc1cc(F)c(F)cc1C(=O)O)c1ccc(-n2ccnc2)nn1
ΔTm [2]: 10 °C
IC50 [3]: 4.89 µM
IC50 [8]: 0.73 µM
IC50 [9]: 5.54 µM
ΔTm (Homo sapiens [14]): 14 °C
IC50 [17]: 2.2 µM
ΔTm (Homo sapiens [21]): 7.5 °C
ΔTm (Homo sapiens [29]): 8.5 °C

N#Cc1ccn(-c2ccc(C(=O)Nc3cc(Cl)c(Br)cc3C(=O)O)nn2)c1
EC50 [22]: 5.11 µM
ΔTm (Homo sapiens [29]): 6.5 °C

CCCn1c(NC(=O)c2cc(C)nn2C)nc2cc(C(N)=O)cc(OC3COC3)c21
ΔTm [2]: 5.5 °C
IC50 [3]: 2.78 µM
IC50 [8]: 3.66 µM
IC50 [9]: 3.82 µM
ΔTm (Homo sapiens [14]): 5 °C
IC50 [16]: 3.16 µM
IC50 [17]: 3.75 µM
ΔTm [20]: 4.5 °C
ΔTm (Homo sapiens [21]): 5.5 °C
ΔTm (Homo sapiens [29]): 6 °C

N#Cc1ccn(-c2ccc(C(=O)Nc3ccc(F)cc3C(=O)O)nn2)c1
EC50 [22]: > 100 µM
ΔTm (Homo sapiens [29]): 0.5 °C

COc1cc(NC(=O)c2ccc(-n3ccc(C#N)c3)nn2)c(C(=O)O)cc1F
EC50 [22]: 9.75 µM
ΔTm (Homo sapiens [29]): 4 °C

N#Cc1ccn(-c2ccc(C(=O)Nc3cc(Cl)c(F)cc3C(=O)O)nn2)c1
EC50 [22]: 5.17 µM
ΔTm (Homo sapiens [29]): 6.5 °C

N#Cc1ccn(-c2ccc(C(=O)Nc3cc(Cl)c(Cl)cc3C(=O)O)nn2)c1
ΔTm [2]: 6.5 °C
IC50 [3]: 2.77 µM
IC50 [8]: 0.76 µM
IC50 [9]: 2.56 µM
ΔTm (Homo sapiens [14]): 13.5 °C
IC50 [16]: 2.42 µM
IC50 [17]: 4.58 µM
ΔTm [20]: 6 °C
ΔTm (Homo sapiens [21]): 7.5 °C
EC50 [22]: 2.99 µM
ΔTm (Homo sapiens [29]): 7.5 °C

N#Cc1ccn(-c2ccc(C(=O)Nc3cc(Br)c(F)cc3C(=O)O)nn2)c1
EC50 [22]: 4.86 µM
ΔTm (Homo sapiens [29]): 6 °C
